Assay results as given in patent US8895585B2, “Nicotinamide derivative or salt thereof” (FUJIFILM Corporation, priority 2010, dated 2014).

Columns and labels:
THP-1 cells = assay: TNFα generation assay; format: cell-based, human; settings: Homo sapiens, THP-1, THP-1 cells; Table 22; read-out: IC50 in TNFα generation assay
Summary of the method: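 THP-1 cells differentiated to macrophage-like cells with 10 ng/ml IFN-γ for 2 days, preincubated with compound 30 min at room temperature, then cultured 7 h on plates coated with human IgG (10 μg/ml). Secreted TNFα measured by ELISA or AlphaLISA.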

[1] = molecular target: T1, glutathione S-transferase (GST)-fused full-length human Syk protein (Homo sapiens, UniProt P43405); assay: Syk enzyme assay; format: biochemical; settings: Syk enzyme assay, Test Example 1; read-out: IC50 of Syk-inhibitory activity
T1 construct: (GST)-fused full-length human Syk protein; GST (glutathione S-transferase); purchased Carna Biosciences
Summary of the method: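 Baculovirus-expressed enzyme (1.2 ng) was preincubated with compound in HEPES pH 7.0/MgCl2/DTT buffer, 2 min shaking then 13 min at room temperature. Biotin-EDPDYEWPSA-NH2 (0.4 μM final) and ATP (27 μM final) were added for 40 min at room temperature. EDTA stop, streptavidin-XL/PT66-K TR-FRET at 615/665 nm gave IC50.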

| IC50 (THP-1 cells) | IC50 [1] | Structure (SMILES) |
| --- | --- | --- |
| 65 to 130 nM | < 10 nM | CC[C@@H](Nc1nc(Nc2cncc(C3CC3)c2)c(C(N)=O)cc1F)[C@H](C)N [Example 006-255, 6-(((2S,3R)-2-aminopentan-3-yl)amino)-2-((5-cyclopropylpyridin-3-yl)amino)-5-fluoronicotinamide] |
| 65 to 130 nM | < 10 nM | CC[C@@H](Nc1nc(Nc2ccnc(-c3ccco3)c2)c(C(N)=O)cc1F)[C@H](C)N [Example 006-256, 6-(((2S,3R)-2-aminopentan-3-yl)amino)-5-fluoro-2-((2-(furan-2-yl)pyridin-4-yl)amino)nicotinamide] |
| 130 to 200 nM | 50 to 100 nM | CC[C@@H](Nc1nc(Nc2cccc3cccnc23)c(C(N)=O)cc1F)[C@H](C)N [Example 006-258, 6-(((2S,3R)-2-aminopentan-3-yl)amino)-5-fluoro-2-((quinolin-8-yl)amino)nicotinamide] |
| < 65 nM | < 10 nM | CC[C@@H](Nc1nc(Nc2cnc3cc(OCCOC)ccc3c2)c(C(N)=O)cc1F)[C@H](C)N [Example 006-259, 6-(((2S,3R)-2-aminopentan-3-yl)amino)-5-fluoro-2-((7-(2-methoxyethoxy)quinolin-3-yl)amino)nicotinamide] |
| < 65 nM | < 10 nM | CC[C@@H](Nc1nc(Nc2ccc3nccnc3c2)c(C(N)=O)cc1F)[C@H](C)N [Example 006-260, 6-(((2S,3R)-2-aminopentan-3-yl)amino)-5-fluoro-2-((quinoxalin-6-yl)amino)nicotinamide] |
| < 65 nM | < 10 nM | CC[C@@H](Nc1nc(Nc2ccc3cccnc3c2)c(C(N)=O)cc1F)[C@H](C)N [Example 006-261, 6-(((2S,3R)-2-aminopentan-3-yl)amino)-5-fluoro-2-((quinolin-7-yl)amino)nicotinamide] |
| < 65 nM | < 10 nM | CC[C@@H](Nc1nc(Nc2cncc3ccccc23)c(C(N)=O)cc1F)[C@H](C)N [Example 006-262, 6-(((2S,3R)-2-aminopentan-3-yl)amino)-5-fluoro-2-((isoquinolin-4-yl)amino)nicotinamide] |
| < 65 nM | < 10 nM | CC[C@@H](Nc1nc(Nc2cnc3ccc(OC)cc3c2)c(C(N)=O)cc1F)[C@H](C)N [Example 006-264, 6-(((2S,3R)-2-aminopentan-3-yl)amino)-5-fluoro-2-((6-methoxyquinolin-3-yl)amino)nicotinamide] |
| 130 to 200 nM | 10 to 50 nM | CC[C@@H](Nc1nc(Nc2ccc(N3CCOCC3)nc2)c(C(N)=O)cc1F)[C@H](C)N [Example 006-265, 6-(((2S,3R)-2-aminopentan-3-yl)amino)-5-fluoro-2-((6-morpholinopyridin-3-yl)amino)nicotinamide] |
| < 65 nM | < 10 nM | CC[C@@H](Nc1nc(Nc2ccnc(OC)c2)c(C(N)=O)cc1F)[C@H](C)N [Example 006-266, 6-(((2S,3R)-2-aminopentan-3-yl)amino)-5-fluoro-2-((2-methoxypyridin-4-yl)amino)nicotinamide] |
| < 65 nM | < 10 nM | CC[C@@H](Nc1nc(Nc2cc(OC)nc(OC)c2)c(C(N)=O)cc1F)[C@H](C)N [Example 006-267, 6-(((2S,3R)-2-aminopentan-3-yl)amino)-2-((2,6-dimethoxypyridin-4-yl)amino)-5-fluoronicotinamide] |
| < 65 nM | < 10 nM | CC[C@@H](Nc1nc(Nc2cccc3c2cnn3C)c(C(N)=O)cc1F)[C@H](C)N [Example 006-268, 6-(((2S,3R)-2-aminopentan-3-yl)amino)-5-fluoro-2-((1-methyl-1H-indazol-4-yl)amino)nicotinamide] |
| 65 to 130 nM | 10 to 50 nM | CC[C@@H](Nc1nc(Nc2cncc(F)c2)c(C(N)=O)cc1F)[C@H](C)N [Example 006-269, 6-(((2S,3R)-2-aminopentan-3-yl)amino)-5-fluoro-2-((5-fluoropyridin-3-yl)amino)nicotinamide] |
| < 65 nM | < 10 nM | CC[C@@H](Nc1nc(Nc2ccc3nc(OCCOC)ccc3c2)c(C(N)=O)cc1F)[C@H](C)N [Example 006-271, 6-(((2S,3R)-2-aminopentan-3-yl)amino)-5-fluoro-2-((2-(2-methoxyethoxy)quinolin-6-yl)amino)nicotinamide] |
| 65 to 130 nM | 10 to 50 nM | CC[C@@H](Nc1nc(Nc2cnc(C)c(C3CC3)c2)c(C(N)=O)cc1F)[C@H](C)N [Example 006-272, 6-(((2S,3R)-2-aminopentan-3-yl)amino)-2-((5-cyclopropyl-6-methylpyridin-3-yl)amino)-5-fluoronicotinamide] |
| 65 to 130 nM | < 10 nM | CCCC[C@H](CN)Nc1nc(Nc2ccc3ncccc3c2)c(C(N)=O)cc1F [Example 006-274, (R)-6-((1-aminohexan-2-yl)amino)-5-fluoro-2-(quinolin-6-ylamino)nicotinamide] |

| IC50 (THP-1 cells) | IC50 [1] | Structure (SMILES) |
| --- | --- | --- |
| < 65 nM | < 10 nM | C[C@H](N)[C@@H](C)Nc1nc(Nc2ccc3ncccc3c2)c(C(N)=O)cc1F [Example 006-275, 6-(((2R,3S)-3-aminobutan-2-yl)amino)-5-fluoro-2-((quinolin-6-yl)amino)nicotinamide] |
| < 65 nM | < 10 nM | CC[C@@H](Nc1nc(Nc2cncc(-c3cccc(OC)c3)c2)c(C(N)=O)cc1F)[C@H](C)N [Example 006-276, 6-(((2S,3R)-2-aminopentan-3-yl)amino)-5-fluoro-2-((5-(3-methoxyphenyl)pyridin-3-yl)amino)nicotinamide] |
| 65 to 130 nM | < 10 nM | CC[C@@H](Nc1nc(Nc2cncc(-c3ccc(OC)cc3)c2)c(C(N)=O)cc1F)[C@H](C)N [Example 006-277, 6-(((2S,3R)-2-aminopentan-3-yl)amino)-5-fluoro-2-((5-(4-methoxyphenyl)pyridin-3-yl)amino)nicotinamide] |
| 65 to 130 nM | < 10 nM | CC[C@@H](Nc1nc(Nc2cncc(-c3ccc(OC)cc3F)c2)c(C(N)=O)cc1F)[C@H](C)N [Example 006-279, 6-(((2S,3R)-2-aminopentan-3-yl)amino)-5-fluoro-2-((5-(2-fluoro-4-methoxyphenyl)pyridin-3-yl)amino)nicotinamide] |
| < 65 nM | < 10 nM | CC[C@@H](Nc1nc(Nc2ccnc(-c3cccc(OC)c3F)c2)c(C(N)=O)cc1F)[C@H](C)N [Example 006-281, 6-(((2S,3R)-2-aminopentan-3-yl)amino)-5-fluoro-2-((2-(2-fluoro-3-methoxyphenyl)pyridin-4-yl)amino)nicotinamide] |
| < 65 nM | < 10 nM | Cn1ncc2cc(Nc3nc(N[C@@H](CN)CC4CC4)c(F)cc3C(N)=O)ccc21 [Example 006-282, (R)-6-((1-amino-3-cyclopropylpropan-2-yl)amino)-5-fluoro-2-((1-methyl-1H-indazol-5-yl)amino)nicotinamide] |
| 130 to 200 nM | < 10 nM | CCC[C@@H](Nc1nc(Nc2cncc(-c3cccc(OC)c3)c2)c(C(N)=O)cc1F)[C@H](C)N [Example 006-284, 6-(((2S,3R)-2-aminohexan-3-yl)amino)-5-fluoro-2-((5-(3-methoxyphenyl)pyridin-3-yl)amino)nicotinamide] |
| 65 to 130 nM | < 10 nM | CCC[C@@H](Nc1nc(Nc2cncc(-c3ccc(OC)cc3)c2)c(C(N)=O)cc1F)[C@H](C)N [Example 006-285, 6-(((2S,3R)-2-aminohexan-3-yl)amino)-5-fluoro-2-((5-(4-methoxyphenyl)pyridin-3-yl)amino)nicotinamide] |
| < 65 nM | < 10 nM | CCC[C@@H](Nc1nc(Nc2cncc(-c3cccc(OC)c3F)c2)c(C(N)=O)cc1F)[C@H](C)N [Example 006-286, 6-(((2S,3R)-2-aminohexan-3-yl)amino)-5-fluoro-2-((5-(2-fluoro-3-methoxyphenyl)pyridin-3-yl)amino)nicotinamide] |
| 65 to 130 nM | < 10 nM | CCC[C@@H](Nc1nc(Nc2cncc(-c3ccc(OC)cc3F)c2)c(C(N)=O)cc1F)[C@H](C)N [Example 006-287, 6-(((2S,3R)-2-aminohexan-3-yl)amino)-5-fluoro-2-((5-(2-fluoro-4-methoxyphenyl)pyridin-3-yl)amino)nicotinamide] |
| 130 to 200 nM | < 10 nM | CCC[C@@H](Nc1nc(Nc2cncc(-c3cc(OC)ccc3F)c2)c(C(N)=O)cc1F)[C@H](C)N [Example 006-288] |
| < 65 nM | < 10 nM | CCC[C@@H](Nc1nc(Nc2ccnc(-c3cccc(OC)c3F)c2)c(C(N)=O)cc1F)[C@H](C)N [Example 006-289, 6-(((2S,3R)-2-aminohexan-3-yl)amino)-5-fluoro-2-((2-(2-fluoro-3-methoxyphenyl)pyridin-4-yl)amino)nicotinamide] |
| < 65 nM | < 10 nM | CCC[C@@H](Nc1nc(Nc2ccnc(-c3cc(OC)ccc3F)c2)c(C(N)=O)cc1F)[C@H](C)N [Example 006-290, 6-(((2S,3R)-2-aminohexan-3-yl)amino)-5-fluoro-2-((2-(2-fluoro-5-methoxyphenyl)pyridin-4-yl)amino)nicotinamide] |
| 130 to 200 nM | 10 to 50 nM | COc1ccc(-c2cncc(Nc3nc(N[C@@H](CN)CC(C)C)c(F)cc3C(N)=O)c2)cc1 [Example 006-291, (R)-6-((1-amino-4-methylpentan-2-yl)amino)-5-fluoro-2-((5-(4-methoxyphenyl)pyridin-3-yl)amino)nicotinamide] |
| 65 to 130 nM | < 10 nM | CCCC[C@H](CN)Nc1nc(Nc2cnc3cc(OC)ccc3c2)c(C(N)=O)cc1F [Example 006-293, (R)-6-((1-aminohexan-2-yl)amino)-5-fluoro-2-((7-methoxyquinolin-3-yl)amino)nicotinamide] |
